d = 2'-deoxy (DNA); m = 2'-O-methyl
Key:
dusp6 gene expression = assay: Differential analysis of dusp6 gene expression in oligodendrocyte cultures with Rat Genome U34 DNA arrays; assay type: cell-based; parameters: key to Change: Increases (I); Decreases (D); undergoes No Change (NC); Marginally Increases (MI); Marginally Decreases (MD); key to Detection: Present (P); Absent (A); Marginal (M); settings: for Ratio (=2^SLR): fold change vs untreated control; for Signal (dusp6, probe set U42627_at): arrays scaled to total intensity 100; for Change: vs control
From the text: Microarrays. The microarrays GeneChip Test 3 (Affymetrix, Santa Clara) were used which allow testing the quality of the RNA prior to the expression analysis with GeneChip Rat Genome U34 set (Affymetrix, Santa Clara), representing 3322 complete gene sequences. The dusp6 gene is represented in the microarray by probe set U42627_at of Affymetrix, which are sense oligonucleotides of 25 nucleotides in length designed on the basis of GeneBank U42627 sequence (Table 1).
Samples. The samples studied corresponded to primary oligodendrocyte cultures obtained from the optic nerve of 12-day old rats. To prevent inter-individual variations, each culture corresponded to a 10-animal cell pool. Treatments were made in duplicate with 10 μM AMPA (α-amino-3-hydroxy-5-methyl-4-isoxazolepropionic acid) or 3 μM kainate. The duration of treatments was 2, 10 and 15 minutes, the cells being collected immediately after treatment in the first two cases and 1 hour after the 15-minute treatment. Treatment for 10 and 15 minutes with AMPA and with kainate causes apoptosis, whereas 2-minute treatment was considered sublethal due to scarce treatment duration. After treatments, the cells were collected in TRIzol® Reagent (Life Technologies) and were stored at −80° C. until total RNA extraction.
The analysis was carried out with total RNA from oligodendrocyte cultures. Each sample corresponded to the mixture of total RNAs from two cultures and were called the following: control: untreated cultured oligodendrocytes ampa 2: oligodendrocytes treated for 2 minutes with 10 μM AMPA and collected after treatment ampa 10: oligodendrocytes treated for 10 minutes with 10 μM AMPA collected after treatment ampa 15: oligodendrocytes treated for 15 minutes with 10 μM AMPA and collected 60 minutes later Kainate 2: oligodendrocytes treated for 2 minutes with 3 μM kainate and collected after treatment Kainate 10: oligodendrocytes treated for 10 minutes with 3 μM kainate and collected after treatment Kainate 15: oligodendrocytes treated for 15 minutes with 3 μM kainate and collected 60 minutes later The total RNA of each one of the cultures was obtained by homogenizing the cells in TRIzol® Reagent (Life Technologies) following the supplier's recommendations. The resulting total RNA was cleaned with the RNeasy Mini kit (QIAGEN) (Chomczynski P. et al., Anal. Biochem., 1987, 162: 156; Chomczynski P., Biotechniques, 1993, 15: 532). 2 μg from each total RNA preparation were used as starting material for the synthesis of biotinylated cRNA with the MessageAmp™ aRNA kit (Ambion).
15 μg of each biotinylated cRNA were fragmented at 94° C. for 35 minutes in a buffer solution containing 40 mM Tris-Acetate (pH 8.1), 100 mM KOAc and 30 mM MgOAc. The fragmented cRNA was mixed with hybridization buffer (10 mM MES, 1M NaCl, 20 mM EDTA, 0.01% Tween 20) and was heated at 99° C. for 5 minutes and subsequently at 45° C. for 5 minutes, to then be loaded into the Affymetrix array. The first array in which hybridization was carried out was Affymetrix Test 3. This array allows testing the quality of the RNA prior to expression analysis in the Affymetrix® GeneChip® Rat Genome U34 set (RG-U34).
For hybridization, the arrays were incubated in a rotary oven at 45° C. for 16 hours and with a constant rotation of 60 rpm.
Washing and staining of each array was carried out in the Affymetrix® Fluidics Station. A washing and staining program was used which included:
The arrays were scanned at 560 nm using a confocal microscope using laser emission (Agilent GeneArray Scanner). Analysis of the intensity readings was carried out with Microarray Suite 5.0 software. To compare the arrays, the latter were scaled to a total intensity of 100.
Differential analysis of the dusp6 gene expression in the oligodendrocytes stimulated with regard to the control was carried out from the array comparison data obtained using the Affymetrix software. […]

oligodendrocytes = settings: UO126 10 μM
Protocol: DUSP6 is a negative regulator of the MAPK/ERK signaling pathway which promotes cell survival, as documented above in the Background of the Invention section. Because of that, we tested if the pharmacological inhibition of this pathway potentiates oligodendrocyte death triggered by activation of AMPA receptors.
To block the MAPK/ERK pathway, oligodendrocytes were incubated with UO126, a dual MEK1 & 2 inhibitor, for 15 min prior to the excitotoxic stimulus. Subsequently, cells were exposed to AMPA 10 μM+CTZ 100 μM during 15 minutes in the presence or absence of UO126, and cell viability was assessed 24 h later by the MTT method.

[1] = system: oligodendrocytes treated with AMPA; assay: Cell death inhibition in oligodendrocytes treated with AMPA after incubation with antisense oligonucleotides; assay type: cell-based, rat; settings: ODN transfected with Lipofectin, stimulus 15 minutes, protecting effect assessed after 6 hours
Protocol: To evaluate if dusp6 expression blocking inhibits cell death of oligodendrocytes treated with AMPA, antisense oligonucleotides (ODNs) capable of blocking said gene expression were used. The working model used in this assay is a model based on the cell death of oligodendrocytes, a typical model for study the neurodegenerative phase of said demyelinating diseases.
Oligonucleotide design was carried out based on the secondary structure of the RNA, trying to prevent sequences presenting a high internal hybridization percentage, and with the aid of AO predict (http://www.cgb.ki.se/AOpredict/) computer software. To improve efficacy and capability to degrade RNA and to reduce side effects, last-generation oligonucleotides were designed, presenting two types of modifications; 2′-O-Methyl groups in the 6 first and last bases, and phosphorothiodated groups in the 8 intermediate bases. Furthermore, the oligonucleotides were labeled with Texas Red to be able to identify the cells transfected with said oligonucleotides.
Three antisense ODNs, for the purpose of identifying active sequences, plus a sense ODN, used as a negative control, were designed. To improve penetration thereof, the ODNs were transfected using the Lipofectin kit (Invitrogen).
24 hours after seeding, the oligodendrocytes were treated with a mixture of ODs at different concentrations coupled to the transfection kit liposomes.
After 24 hours, the cells were rinsed and were left another 24 hours before the experiment to ensure total blocking of the protein under study. Subsequently, the excitotoxic stimulus, AMPA 10 μM+CTZ 100 μM, was added during 15 minutes, and the protecting effect of the different ODNs after 6 hours was assessed.

[2] = treated 2 minutes (10 μM AMPA or 3 μM kainate), collected after treatment
[3] = treated 10 minutes (10 μM AMPA or 3 μM kainate), collected after treatment
[4] = treated 15 minutes (10 μM AMPA or 3 μM kainate), collected 60 minutes later
[5] = treatments with kainate (3 μM; 2, 10 and 15 minutes) taken together

## C=C(C)[C@H]1CN[C@H](C(=O)O)[C@H]1CC(=O)O [Kainate, kainate]
dusp6 gene expression; Signal Log Ratio (log2), treated 2 minutes (10 μM AMPA or 3 μM kainate), collected after treatment
  SLR (vs control): 0.6
dusp6 gene expression; Signal Log Ratio (log2), treated 10 minutes (10 μM AMPA or 3 μM kainate), collected after treatment
  SLR (vs control): 0.6
dusp6 gene expression; Signal Log Ratio (log2), treated 15 minutes (10 μM AMPA or 3 μM kainate), collected 60 minutes later
  SLR (vs control): 0.9
dusp6 gene expression; [2]
  Ratio (=2^SLR): 1.5 fold
  Detection: P
  Signal (dusp6, probe set U42627_at): 48.4
  Change: I
dusp6 gene expression; [3]
  Ratio (=2^SLR): 1.5 fold
  Detection: P
  Signal (dusp6, probe set U42627_at): 43.5
  Change: I
dusp6 gene expression; [4]
  Ratio (=2^SLR): 1.9 fold
  Detection: P
  Signal (dusp6, probe set U42627_at): 63.7
  Change: I
dusp6 gene expression; [5]
  SLR (vs control): < 1
  dusp6 expression increase with regard to the control: less than two fold

## N#CC(=C(/N)Sc1ccccc1N)/C(C#N)=C(/N)Sc1ccccc1N [UO126]
oligodendrocytes; 15 min prior to and during 15 minutes stimulus, MTT 24 h later, p<0.05, n=3 in triplicate
  oligodendroglial cell death induced by AMPA 10 μM+CTZ 100 μM in the presence of UO126: increased three-fold
oligodendrocytes; MTT, 24 h later
  oligodendroglial viability under control conditions: did not affect oligodendroglial viability

## ODN2: antisense ODN against dusp6; 2′-O-Methyl groups in 6 first and last bases, phosphorothiodated 8 intermediate bases, Texas Red labeled (antisense TCAACGTGGCCATCCCGGGC; sugars from the 5' end m6 d8 m6, backbone, methylation of C and T or U not given here; Texas Red label, phosphorothioates in eight intermediate bases)
[1]
  oligodendroglial death after stimulation with AMPA 10 μM+CTZ 100 μM: significantly inhibited
[1]; listed as SEQ ID NO:3
  oligodendroglial death after stimulation with AMPA 10 μM+CTZ 100 μM: inhibit cell death of oligodendrocytes treated with AMPA

## ODN3: antisense ODN against dusp6; 2′-O-Methyl groups in 6 first and last bases, phosphorothiodated 8 intermediate bases, Texas Red labeled (antisense CCAAGTGGACTCCCTGCAATC; sugars from the 5' end m6 d9 m6, backbone, methylation of C and T or U not given here; Texas Red label, phosphorothioates in eight intermediate bases)
[1]
  oligodendroglial death after stimulation with AMPA 10 μM+CTZ 100 μM: significantly inhibited
[1]; listed as SEQ ID NO:4
  oligodendroglial death after stimulation with AMPA 10 μM+CTZ 100 μM: inhibit cell death of oligodendrocytes treated with AMPA
